The NIST ThermoML archive (doi:10.1016/j.tca.2017.08.010)

Assay: mn = molality of the nth substance listed, in mol/kg
Details: 101 kPa, Liquid, Optical method

SMILES | binary diffusion coefficient (288.15 K, m1 = 0.023) [m2/s] | binary diffusion coefficient (288.15 K, m1 = 0.071) [m2/s] | binary diffusion coefficient (288.15 K, m1 = 0.119) [m2/s] | binary diffusion coefficient (293.15 K, m1 = 0.023) [m2/s] | binary diffusion coefficient (293.15 K, m1 = 0.071) [m2/s] | binary diffusion coefficient (293.15 K, m1 = 0.119) [m2/s] | binary diffusion coefficient (298.15 K, m1 = 0.023) [m2/s] | binary diffusion coefficient (298.15 K, m1 = 0.071) [m2/s] | binary diffusion coefficient (298.15 K, m1 = 0.119) [m2/s] | binary diffusion coefficient (303.15 K, m1 = 0.023) [m2/s] | binary diffusion coefficient (303.15 K, m1 = 0.071) [m2/s] | binary diffusion coefficient (303.15 K, m1 = 0.119) [m2/s] | binary diffusion coefficient (308.15 K, m1 = 0.023) [m2/s] | binary diffusion coefficient (308.15 K, m1 = 0.071) [m2/s] | binary diffusion coefficient (308.15 K, m1 = 0.119) [m2/s] | binary diffusion coefficient (313.15 K, m1 = 0.023) [m2/s] | binary diffusion coefficient (313.15 K, m1 = 0.071) [m2/s] | binary diffusion coefficient (313.15 K, m1 = 0.119) [m2/s] | binary diffusion coefficient (298.15 K, m1 = 0.342) [m2/s]
CN1c2ccccc2Sc2ccccc21 [10-methylphenothiazine] + COC(=O)OC | 9.16e-10 | 6.72e-10 | 8.56e-10 | 1.11e-09 | 8.44e-10 | 1.04e-09 | 1.32e-09 | 1.06e-09 | 1.26e-09 | 1.54e-09 | 1.32e-09 | 1.47e-09 | 1.79e-09 | 1.59e-09 | 1.71e-09 | 2.07e-09 | 1.92e-09 | 1.99e-09 | –
[Cl-].[K+] [potassium chloride] + O | – | – | – | – | – | – | – | – | – | – | – | – | – | – | – | – | – | – | 1.81e-09
